Laboratory results from patent publication US11479559B2, “Urea-substituted aromatic ring-linked dioxinoquinoline compounds, preparation method and uses thereof” (BEIJING SCITECH-MQ PHARMACEUTICALS LIMITED, priority 2018, dated 2022).

Biological target: RET tyrosine kinase (Homo sapiens (Human), UniProt P07949)
Test: Assay of small molecular compounds for inhibiting the activity of RET kinase (LANCE TR-FRET)
Conditions: not given

Sequence of RET tyrosine kinase (P07949 29-1114): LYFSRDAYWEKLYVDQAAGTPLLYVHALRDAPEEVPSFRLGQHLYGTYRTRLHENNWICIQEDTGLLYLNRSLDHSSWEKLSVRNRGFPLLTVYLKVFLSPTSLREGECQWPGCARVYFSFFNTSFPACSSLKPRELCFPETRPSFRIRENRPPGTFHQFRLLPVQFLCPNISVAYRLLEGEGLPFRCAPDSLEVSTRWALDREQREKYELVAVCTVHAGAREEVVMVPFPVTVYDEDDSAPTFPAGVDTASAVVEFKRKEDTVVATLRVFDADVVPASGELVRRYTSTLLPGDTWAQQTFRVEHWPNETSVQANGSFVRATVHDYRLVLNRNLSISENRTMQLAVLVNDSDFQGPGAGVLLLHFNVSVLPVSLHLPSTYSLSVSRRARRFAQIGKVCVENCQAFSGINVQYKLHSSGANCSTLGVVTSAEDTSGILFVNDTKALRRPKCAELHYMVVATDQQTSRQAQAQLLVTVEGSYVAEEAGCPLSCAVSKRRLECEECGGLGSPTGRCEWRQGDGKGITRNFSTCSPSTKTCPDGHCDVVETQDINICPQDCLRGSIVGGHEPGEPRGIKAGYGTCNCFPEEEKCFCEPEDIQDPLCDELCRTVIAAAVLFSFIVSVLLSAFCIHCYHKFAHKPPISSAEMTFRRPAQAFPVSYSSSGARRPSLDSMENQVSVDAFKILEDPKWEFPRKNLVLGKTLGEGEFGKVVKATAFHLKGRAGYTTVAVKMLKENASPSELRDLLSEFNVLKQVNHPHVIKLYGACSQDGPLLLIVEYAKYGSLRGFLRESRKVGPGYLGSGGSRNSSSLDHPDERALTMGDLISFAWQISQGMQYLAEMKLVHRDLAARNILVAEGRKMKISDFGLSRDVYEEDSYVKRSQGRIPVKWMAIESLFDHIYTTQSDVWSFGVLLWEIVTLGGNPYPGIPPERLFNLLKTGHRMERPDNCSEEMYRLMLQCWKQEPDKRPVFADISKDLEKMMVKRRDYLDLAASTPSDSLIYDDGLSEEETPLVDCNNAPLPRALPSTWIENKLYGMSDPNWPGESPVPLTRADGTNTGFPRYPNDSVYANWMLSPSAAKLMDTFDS

Compound | IC50
COc1cc2nccc(Oc3ccc(NC(=O)Nc4ccc(F)cc4F)cc3)c2c2c1OCCO2 [Example 4, 1-(2,4-difluorophenyl)-3-(4-((5-methoxy-2,3-dihydro-[1,4]dioxino[2,3-f]quinolin-10-yl)oxy)phenyl)urea] | 50 to 500 nM
O=C(Nc1ccc(Oc2ccnc3cc(OC4CCOCC4)c4c(c23)OCCO4)cc1)Nc1ccc(Cl)c(C(F)(F)F)c1 [Example 33, 1-(4-chloro-3-(trifluoromethyl)phenyl)-3-(4-((5-((tetrahydro-2H-pyran-4-yl)oxy)-2,3-dihydro-[1,4]dioxino[2,3-f]quinolin-10-yl)oxy)phenyl)urea] | 50 to 500 nM
O=C(Nc1ccc(Oc2ccnc3cc(OC4CCOC4)c4c(c23)OCCO4)cc1)Nc1ccc(Cl)c(C(F)(F)F)c1 (stereo not shown) [Example 32, 1-(4-chloro-3-(trifluoromethyl)phenyl)-3-(4-((5-((tetrahydrofuran-3-yl)oxy)-2,3-dihydro-[1,4]dioxino[2,3-f]quinolin-10-yl)oxy)phenyl)urea] | 50 to 500 nM
COc1cc2nccc(Oc3ccc(NC(=O)Nc4ccc(F)cc4)cc3)c2c2c1OCCO2 [Example 3, 1-(4-fluorophenyl)-3-(4-((5-methoxy-2,3-dihydro-[1,4]dioxino[2,3-f]quinolin-10-yl)oxy)phenyl)urea] | 50 to 500 nM
N#CCOc1cc2nccc(Oc3ccc(NC(=O)Nc4ccc(Cl)c(C(F)(F)F)c4)cc3)c2c2c1OCCO2 [Example 13, 1-(4-chloro-3-(trifluoromethyl)phenyl)-3-(4-((5-(cyanomethoxy)-2,3-dihydro-[1,4]dioxino[2,3-f]quinolin-10-yl)oxy)phenyl)urea] | 50 to 500 nM
COCCCOc1cc2nccc(Oc3ccc(NC(=O)Nc4ccc(Cl)c(C(F)(F)F)c4)c(F)c3)c2c2c1OCCO2 [Example 39, 1-(4-chloro-3-(trifluoromethyl)phenyl)-3-(2-fluoro-4-((5-(3-methoxypropoxy)-2,3-dihydro-[1,4]dioxino[2,3-f]quinolin-10-yl)oxy)phenyl)urea] | 50 to 500 nM
O=C(Nc1ccc(Oc2ccnc3cc(OCCCN4CCOCC4)c4c(c23)OCCO4)c(F)c1)Nc1ccc(Cl)c(C(F)(F)F)c1 [Example 41, 1-(4-chloro-3-(trifluoromethyl)phenyl)-3-(3-fluoro-4-((5-(3-morpholinopropoxy)-2,3-dihydro-[1,4]dioxino[2,3-f]quinolin-10-yl)oxy)phenyl)urea] | 50 to 500 nM
COCCCOc1cc2nccc(Oc3ccc(NC(=O)Nc4ccc(Cl)c(C(F)(F)F)c4)cc3F)c2c2c1OCCO2 [Example 38, 1-(4-chloro-3-(trifluoromethyl)phenyl)-3-(3-fluoro-4-((5-(3-methoxypropoxy)-2,3-dihydro-[1,4]dioxino[2,3-f]quinolin-10-yl)oxy)phenyl)urea] | 50 to 500 nM
COCCOc1cc2nccc(Oc3ccc(NC(=O)Nc4ccc(Cl)c(C(F)(F)F)c4)c(F)c3)c2c2c1OCCO2 [Example 37, 1-(4-chloro-3-(trifluoromethyl)phenyl)-3-(2-fluoro-4-((5-(2-methoxyethoxy)-2,3-dihydro-[1,4]dioxino[2,3-f]quinolin-10-yl)oxy)phenyl)urea] | < 50 nM
COCCOc1cc2nccc(Oc3ccc(NC(=O)Nc4cc(C(F)(F)F)ccc4F)cc3)c2c2c1OCCO2 [Example 34, 1-(2-fluoro-5-(trifluoromethyl)phenyl)-3-(4-((5-(2-methoxyethoxy)-2,3-dihydro-[1,4]dioxino[2,3-f]quinolin-10-yl)oxy)phenyl)urea] | < 50 nM
O=C(Nc1ccc(Oc2ccnc3cc(OC4COC4)c4c(c23)OCCO4)cc1)Nc1ccc(Cl)c(C(F)(F)F)c1 [Example 31] | 50 to 500 nM
O=C(Nc1ccc(Oc2ccnc3cc(OCCCN4CCS(=O)(=O)CC4)c4c(c23)OCCO4)cc1)Nc1ccc(Cl)c(C(F)(F)F)c1 [Example 23, 1-(4-chloro-3-(trifluoromethyl)phenyl)-3-(4-((5-(3-(1,1-dioxothiomorpholino)propoxy)-2,3-dihydro-[1,4]dioxino[2,3-f]quinolin-10-yl)oxy)phenyl)urea] | 50 to 500 nM

The remaining lines, values ahead:

IC50 | Compound
< 50 nM | O=C(Nc1ccc(Oc2ccnc3cc(OCCCN4CCOCC4)c4c(c23)OCCO4)cc1Cl)NC1CCCC1 [Example 75, 1-(2-chloro-4-((5-(3-morpholinopropoxy)-2,3-dihydro-[1,4]dioxino[2,3-f]quinolin-10-yl)oxy)phenyl)-3-cyclopentylurea]
< 50 nM | COCCOc1cc2nccc(Oc3ccc(NC(=O)NC4CCCC4)c(Cl)c3)c2c2c1OCCO2 [Example 71, 1-(2-chloro-4-((5-(2-methoxyethoxy)-2,3-dihydro-[1,4]dioxino[2,3-f]quinolin-10-yl)oxy)phenyl)-3-cyclopentylurea]
50 to 500 nM | COCCCOc1cc2nccc(Oc3ccc(NC(=O)NC4CCCC4)c(Cl)c3)c2c2c1OCCO2 [Example 73, 1-(2-chloro-4-((5-(3-methoxypropoxy)-2,3-dihydro-[1,4]dioxino[2,3-f]quinolin-10-yl)oxy)phenyl)-3-cyclopentylurea]
50 to 500 nM | COc1cc2nccc(Oc3ccc(NC(=O)NCC(C)C)c(Cl)c3)c2c2c1OCCO2 [Example 83, 1-(2-chloro-4-((5-methoxy-2,3-dihydro-[1,4]dioxino[2,3-f]quinolin-10-yl)oxy)phenyl)-3-isobutylurea]

Same assay, conditions: read-out: RET IC50

Compound | IC50
CC1(C)CCN(CCCOc2cc3nccc(Oc4ccc(NC(=O)Nc5ccc(Cl)c(C(F)(F)F)c5)cc4)c3c3c2OCCO3)CC1 [Example 24, 1-(4-chloro-3-(trifluoromethyl)phenyl)-3-(4-((5-(3-(4,4-dimethylpiperidin-1-yl)propoxy)-2,3-dihydro-[1,4]dioxino[2,3-f]quinolin-10-yl)oxy)phenyl)urea] | < 50 nM
CCOc1cc2nccc(Oc3ccc(NC(=O)Nc4ccc(Cl)c(C(F)(F)F)c4)c(F)c3)c2c2c1OCCO2 [Example 35, 1-(4-chloro-3-(trifluoromethyl)phenyl)-3-(4-((5-ethoxy-2,3-dihydro-[1,4]dioxino[2,3-f]quinolin-10-yl)oxy)-2-fluorophenyl)urea] | < 50 nM
CC(=O)N1CCN(CCCOc2cc3nccc(Oc4ccc(NC(=O)Nc5ccc(Cl)c(C(F)(F)F)c5)cc4)c3c3c2OCCO3)CC1 [Example 22, 1-(4-((5-(3-(4-acetylpiperazin-1-yl)propoxy)-2,3-dihydro-[1,4]dioxino[2,3-f]quinolin-10-yl)oxy)phenyl)-3-(4-chloro-3-(trifluoromethyl)phenyl)urea] | < 50 nM
COCCCCCCOc1cc2nccc(Oc3ccc(NC(=O)Nc4ccc(Cl)c(C(F)(F)F)c4)cc3)c2c2c1OCCO2 [Example 29, 1-(4-chloro-3-(trifluoromethyl)phenyl)-3-(4-((5-((6-methoxyhexyl)oxy)-2,3-dihydro-[1,4]dioxino[2,3-f]quinolin-10-yl)oxy)phenyl)urea] | < 50 nM
CC(C)COc1cc2nccc(Oc3ccc(NC(=O)NC4CC4)c(Cl)c3)c2c2c1OCCO2 [Example 45, 1-(2-chloro-4-((5-isobutoxy-2,3-dihydro-[1,4]dioxino[2,3-f]quinolin-10-yl)oxy)phenyl)-3-cyclopropylurea] | < 50 nM
COc1cc2nccc(Oc3ccc(NC(=O)Nc4ccc(Cl)c(C(F)(F)F)c4)c(F)c3)c2c2c1OCCO2 [Example 6, 1-(4-chloro-3-(trifluoromethyl)phenyl)-3-(2-fluoro-4-((5-methoxy-2,3-dihydro-[1,4]dioxino[2,3-f]quinolin-10-yl)oxy)phenyl)urea] | < 50 nM
COCCCOc1cc2nccc(Oc3ccc(NC(=O)Nc4cc(C(F)(F)F)ccc4F)cc3)c2c2c1OCCO2 [Example 40, 1-(2-fluoro-5-(trifluoromethyl)phenyl)-3-(4-((5-(3-methoxypropoxy)-2,3-dihydro-[1,4]dioxino[2,3-f]quinolin-10-yl)oxy)phenyl)urea] | < 50 nM
COc1cc2nccc(Oc3ccc(NC(=O)Nc4cc(C(F)(F)F)ccc4F)cc3)c2c2c1OCCO2 [Example 2, 1-(2-fluoro-5-(trifluoromethyl)phenyl)-3-(4-((5-methoxy-2,3-dihydro-[1,4]dioxino[2,3-f]quinolin-10-yl)oxy)phenyl)urea] | < 50 nM

The remaining lines, values ahead:

IC50 | Compound
< 50 nM | COc1cc2nccc(Oc3ccc(NC(=O)NC4CCC4)c(Cl)c3)c2c2c1OCCO2 [Example 68, 1-(2-chloro-4-((5-methoxy-2,3-dihydro-[1,4]dioxino[2,3-f]quinolin-10-yl)oxy)phenyl)-3-cyclobutylurea]
< 50 nM | O=C(Nc1ccc(Oc2ccnc3cc(OCCCN4CCOCC4)c4c(c23)OCCO4)cc1)Nc1cc(C(F)(F)F)ccc1F [Example 76, 1-(2-fluoro-5-(trifluoromethyl)phenyl)-3-(4-((5-(3-morpholinopropoxy)-2,3-dihydro-[1,4]dioxino[2,3-f]quinolin-10-yl)oxy)phenyl)urea]
< 50 nM | CC(C)Oc1cc2nccc(Oc3ccc(NC(=O)NC4CC4)c(Cl)c3)c2c2c1OCCO2 [Example 44, 1-(2-chloro-4-((5-isopropoxy-2,3-dihydro-[1,4]dioxino[2,3-f]quinolin-10-yl)oxy)phenyl)-3-cyclopropylurea]
< 50 nM | O=C(Nc1ccc(Oc2ccnc3cc(OC4COC4)c4c(c23)OCCO4)cc1Cl)NC1CC1 [Example 65, 1-(2-chloro-4-((5-(oxetan-3-yloxy)-2,3-dihydro-[1,4]dioxino[2,3-f]quinolin-10-yl)oxy)phenyl)-3-cyclopropylurea]
< 50 nM | O=C(Nc1ccc(Cl)c(C(F)(F)F)c1)Nc1ccc(Oc2ccnc3cc(OCCCN4CCOCC4)c4c(c23)OCCO4)cc1F [Example 42, 1-(4-chloro-3-(trifluoromethyl)phenyl)-3-(2-fluoro-4-((5-(3-morpholinopropoxy)-2,3-dihydro-[1,4]dioxino[2,3-f]quinolin-10-yl)oxy)phenyl)urea]
< 50 nM | COc1cc2nccc(Oc3ccc(NC(=O)NC(C)C)c(Cl)c3)c2c2c1OCCO2 [Example 82, 1-(2-chloro-4-((5-methoxy-2,3-dihydro-[1,4]dioxino[2,3-f]quinolin-10-yl)oxy)phenyl)-3-isopropylurea]
< 50 nM | COc1cc2nccc(Oc3ccc(NC(=O)NC4CCCC4)c(Cl)c3)c2c2c1OCCO2 [Example 69, 1-(2-chloro-4-((5-methoxy-2,3-dihydro-[1,4]dioxino[2,3-f]quinolin-10-yl)oxy)phenyl)-3-cyclopentylurea]
